Experimental data from PMC5218480 (PLoS ONE, 2017).

Tested on: MV-4-11 cells
Assay: Gene expression microarray analysis (Affymetrix PrimeView) and GSEA
Assay type: cell-based, human
Parameters: RFU PODN (11730768_x_at) / Fold change /veh PODN (11730768_x_at) / RFU LINC00158 (11744669_a_at) / Fold change /veh LINC00158 (11744669_a_at) / RFU DUSP10 (11751237_a_at) / Fold change /veh DUSP10 (11751237_a_at) / RFU ID3 (11757404_x_at) / Fold change /veh ID3 (11757404_x_at) / RFU PLEKHG5 (11737974_s_at) / Fold change /veh PLEKHG5 (11737974_s_at) / RFU LRRC4B (11730491_at) / Fold change /veh LRRC4B (11730491_at) / RFU GIMAP4 (11747438_a_at) / Fold change /veh GIMAP4 (11747438_a_at) / RFU KRT8 (11758183_x_at) / Fold change /veh KRT8 (11758183_x_at) / RFU CNN1 (11734310_a_at) / Fold change /veh CNN1 (11734310_a_at) / RFU VPS37D (11726825_at) / Fold change /veh VPS37D (11726825_at) / RFU C10orf10 (11716522_x_at) / Fold change /veh C10orf10 (11716522_x_at) / RFU KIR2DL2 /// KIR2DL4 /// KIR2DL5A /// KIR2DL5B /// KIR2DS1 /// KIR2DS2 /// KIR2DS3 /// KIR2DS4 /// KIR3DL3 /// KIR3DL3 /// KIR3DS1 (11738374_at) / Fold change /veh KIR2DL2 /// KIR2DL4 /// KIR2DL5A /// KIR2DL5B /// KIR2DS1 /// KIR2DS2 /// KIR2DS3 /// KIR2DS4 /// KIR3DL3 /// KIR3DL3 /// KIR3DS1 (11738374_at) / RFU C1QL1 (11718748_at) / Fold change /veh C1QL1 (11718748_at) / RFU TMPRSS4 (11747572_a_at) / Fold change /veh TMPRSS4 (11747572_a_at) / RFU HAMP (11756126_x_at) / Fold change /veh HAMP (11756126_x_at) / RFU RNFT2 (11725882_a_at) / Fold change /veh RNFT2 (11725882_a_at) / RFU NR4A2 (11747474_a_at) / Fold change /veh NR4A2 (11747474_a_at) / RFU ABCC12 (11746883_a_at) / Fold change /veh ABCC12 (11746883_a_at) / RFU TMEM136 (11760407_x_at) / Fold change /veh TMEM136 (11760407_x_at) / RFU CLDN22 /// WWC2 (11732394_at) / Fold change /veh CLDN22 /// WWC2 (11732394_at) / RFU HLA-DPB1 (11760878_x_at) / Fold change /veh HLA-DPB1 (11760878_x_at) / RFU SPINT1 (11716480_a_at) / Fold change /veh SPINT1 (11716480_a_at) / RFU GAP43 (11754022_s_at) / Fold change /veh GAP43 (11754022_s_at) / RFU A4GNT (11735810_at) / Fold change /veh A4GNT (11735810_at) / RFU PRB3 (11715151_x_at) / Fold change /veh PRB3 (11715151_x_at) / RFU TUBB4B (11761932_at) / Fold change /veh TUBB4B (11761932_at) / RFU CAPN14 (11732068_a_at) / Fold change /veh CAPN14 (11732068_a_at) / RFU TMCC2 (11721928_a_at) / Fold change /veh TMCC2 (11721928_a_at) / RFU IRGQ (11745062_a_at) / Fold change /veh IRGQ (11745062_a_at) / RFU FAM174B (11720279_a_at) / Fold change /veh FAM174B (11720279_a_at) / RFU TMPRSS4 (11748680_a_at) / Fold change /veh TMPRSS4 (11748680_a_at) / RFU FAM212B (11763350_a_at) / Fold change /veh FAM212B (11763350_a_at) / RFU PLEKHG5 (11743358_a_at) / Fold change /veh PLEKHG5 (11743358_a_at) / RFU ZSCAN30 (11745921_a_at) / Fold change /veh ZSCAN30 (11745921_a_at) / RFU CMKLR1 (11741424_a_at) / Fold change /veh CMKLR1 (11741424_a_at) / RFU LOC101060620 /// MAPK8IP1 (11723275_at) / Fold change /veh LOC101060620 /// MAPK8IP1 (11723275_at) / RFU SPTSSB (11747773_x_at) / Fold change /veh SPTSSB (11747773_x_at) / RFU PRSS12 (11739890_at) / Fold change /veh PRSS12 (11739890_at) / RFU BIN1 (11741810_x_at) / Fold change /veh BIN1 (11741810_x_at) / RFU WNT11 (11732464_a_at) / Fold change /veh WNT11 (11732464_a_at) / RFU C10orf10 (11716521_a_at) / Fold change /veh C10orf10 (11716521_a_at) / RFU C5orf56 (11738089_at) / Fold change /veh C5orf56 (11738089_at) / RFU CYB561 (11721691_x_at) / Fold change /veh CYB561 (11721691_x_at) / RFU ANKRD19P (11752326_a_at) / Fold change /veh ANKRD19P (11752326_a_at) / RFU OR2T12 /// OR2T33 /// OR2T8 (11738714_s_at) / Fold change /veh OR2T12 /// OR2T33 /// OR2T8 (11738714_s_at) / RFU VCAN (11748164_a_at) / Fold change /veh VCAN (11748164_a_at) / RFU JSRP1 (11732532_at) / Fold change /veh JSRP1 (11732532_at) / RFU KRTAP10-11 (11738290_x_at) / Fold change /veh KRTAP10-11 (11738290_x_at) / RFU MYO3A (11730013_a_at) / Fold change /veh MYO3A (11730013_a_at) / RFU EBF3 (11725865_a_at) / Fold change /veh EBF3 (11725865_a_at) / RFU CAMK2N1 (11719241_x_at) / Fold change /veh CAMK2N1 (11719241_x_at) / RFU C5orf56 (11738088_a_at) / Fold change /veh C5orf56 (11738088_a_at) / RFU OLFML3 (11715873_a_at) / Fold change /veh OLFML3 (11715873_a_at) / RFU LOC100653217 /// NTM (11731650_a_at) / Fold change /veh LOC100653217 /// NTM (11731650_a_at) / RFU MAPK11 (11762145_a_at) / Fold change /veh MAPK11 (11762145_a_at) / RFU FIZ1 (11724087_x_at) / Fold change /veh FIZ1 (11724087_x_at) / RFU OASL (11726364_x_at) / Fold change /veh OASL (11726364_x_at) / RFU SOX15 (11748057_x_at) / Fold change /veh SOX15 (11748057_x_at) / RFU CD79A (11719716_a_at) / Fold change /veh CD79A (11719716_a_at) / RFU HIST1H1D (11736915_at) / Fold change /veh HIST1H1D (11736915_at) / RFU CASKIN2 (11723855_a_at) / Fold change /veh CASKIN2 (11723855_a_at) / RFU LOC730098 (11760151_x_at) / Fold change /veh LOC730098 (11760151_x_at) / RFU OR4N2 (11742367_at) / Fold change /veh OR4N2 (11742367_at) / RFU PRRT2 (11749266_a_at) / Fold change /veh PRRT2 (11749266_a_at) / RFU SNX32 (11753110_a_at) / Fold change /veh SNX32 (11753110_a_at) / RFU CDHR5 (11726645_a_at) / Fold change /veh CDHR5 (11726645_a_at) / RFU RCAN1 (11760418_a_at) / Fold change /veh RCAN1 (11760418_a_at) / RFU FAM167A (11723789_a_at) / Fold change /veh FAM167A (11723789_a_at) / RFU FAM26E (11764081_at) / Fold change /veh FAM26E (11764081_at) / RFU ISYNA1 (11749810_s_at) / Fold change /veh ISYNA1 (11749810_s_at) / RFU ACY1 (11761880_at) / Fold change /veh ACY1 (11761880_at) / RFU 11764098_at / Fold change /veh 11764098_at / RFU SAMD14 (11745864_x_at) / Fold change /veh SAMD14 (11745864_x_at) / RFU NPB (11741838_a_at) / Fold change /veh NPB (11741838_a_at) / RFU TMPRSS6 (11731388_a_at) / Fold change /veh TMPRSS6 (11731388_a_at) / RFU KRTAP10-2 (11738614_at) / Fold change /veh KRTAP10-2 (11738614_at) / RFU ARHGAP8 /// PRR5-ARHGAP8 (11727945_x_at) / Fold change /veh ARHGAP8 /// PRR5-ARHGAP8 (11727945_x_at) / RFU KRTAP5-7 /// NADSYN1 (11734609_at) / Fold change /veh KRTAP5-7 /// NADSYN1 (11734609_at) / RFU RASL12 (11751679_a_at) / Fold change /veh RASL12 (11751679_a_at) / RFU CDKN2B (11736163_a_at) / Fold change /veh CDKN2B (11736163_a_at) / RFU PRF1 (11729649_at) / Fold change /veh PRF1 (11729649_at) / RFU, ZNF638 /// ZNF638-IT1 / Fold change vs veh, ZNF638 /// ZNF638-IT1 / RFU, PANK3 / Fold change vs veh, PANK3 / RFU, SH3YL1 / Fold change vs veh, SH3YL1 / RFU, ZEB2 / Fold change vs veh, ZEB2 / RFU, NRIP1 / Fold change vs veh, NRIP1 / RFU, PTTG1IP / Fold change vs veh, PTTG1IP / RFU, CAPN2 / Fold change vs veh, CAPN2 / RFU, MED14 / Fold change vs veh, MED14 / RFU, SNORA58 / Fold change vs veh, SNORA58 / RFU, C1orf63 / Fold change vs veh, C1orf63 / RFU, LRRFIP1 / Fold change vs veh, LRRFIP1 / RFU, NDUFAF7 / Fold change vs veh, NDUFAF7 / RFU, SLC12A2 / Fold change vs veh, SLC12A2 / RFU, IBTK / Fold change vs veh, IBTK / RFU, ESF1 / Fold change vs veh, ESF1 / Fold change vs veh, TMEM50B / RFU, TAOK1 / Fold change vs veh, TAOK1 / RFU, ACBD3 / Fold change vs veh, ACBD3 / RFU, TMA16 / Fold change vs veh, TMA16 / RFU, RWDD3 / Fold change vs veh, RWDD3 / RFU, BCAT1 / Fold change vs veh, BCAT1 / RFU, EDEM3 / Fold change vs veh, EDEM3 / RFU, TMEM33 / Fold change vs veh, TMEM33 / RFU, WDR75 / Fold change vs veh, WDR75 / RFU, AHCTF1 / Fold change vs veh, AHCTF1 / RFU, TFRC / Fold change vs veh, TFRC / RFU, ZDHHC17 / Fold change vs veh, ZDHHC17 / RFU, NOM1 / Fold change vs veh, NOM1 / RFU, ARL8B / Fold change vs veh, ARL8B / RFU, ZBTB11 / Fold change vs veh, ZBTB11 / RFU, TAMM41 / Fold change vs veh, TAMM41 / RFU, KIAA1704 /// LOC100996395 / Fold change vs veh, KIAA1704 /// LOC100996395 / RFU, ING1 / Fold change vs veh, ING1 / RFU, TRMT61B / Fold change vs veh, TRMT61B / RFU, FUBP3 / Fold change vs veh, FUBP3 / RFU, TP53 / Fold change vs veh, TP53 / RFU, TNKS2 / Fold change vs veh, TNKS2 / RFU, ZFP14 / Fold change vs veh, ZFP14 / RFU, ACTR2 / Fold change vs veh, ACTR2 / RFU, PPP3R1 / Fold change vs veh, PPP3R1 / RFU, PIK3R1 / Fold change vs veh, PIK3R1 / RFU, HNRNPA1 / Fold change vs veh, HNRNPA1 / RFU, RNF170 / Fold change vs veh, RNF170 / RFU, ZNF28 / Fold change vs veh, ZNF28 / RFU, RNGTT / Fold change vs veh, RNGTT / RFU, OGT / Fold change vs veh, OGT / RFU, BRD1 / Fold change vs veh, BRD1 / RFU, MARS / Fold change vs veh, MARS / RFU, ZNF655 / Fold change vs veh, ZNF655 / RFU, FAHD1 / Fold change vs veh, FAHD1 / RFU, BDP1 / Fold change vs veh, BDP1 / RFU, LRRCC1 / Fold change vs veh, LRRCC1 / RFU, ARID1A / Fold change vs veh, ARID1A / RFU, ZNF146 / Fold change vs veh, ZNF146 / RFU, ZNF330 / Fold change vs veh, ZNF330 / RFU, GPN3 / Fold change vs veh, GPN3 / RFU, C9orf123 / Fold change vs veh, C9orf123 / RFU, N4BP2L2 / Fold change vs veh, N4BP2L2 / RFU, ARFIP1 / Fold change vs veh, ARFIP1 / RFU, FAM179B / Fold change vs veh, FAM179B / RFU, BCL10 / Fold change vs veh, BCL10 / RFU, UHRF1BP1L / Fold change vs veh, UHRF1BP1L / RFU, BET1 / Fold change vs veh, BET1 / RFU, CNOT2 / Fold change vs veh, CNOT2 / RFU, ZNF268 / Fold change vs veh, ZNF268 / Fold change vs veh, ZNF507 / RFU, DGCR2 / Fold change vs veh, DGCR2 / RFU, WDSUB1 / Fold change vs veh, WDSUB1 / Fold change vs veh, HSP90B1 /// MIR3652 / RFU, ADSS / Fold change vs veh, ADSS / RFU, GK / Fold change vs veh, GK / RFU, ZNF148 / Fold change vs veh, ZNF148 / RFU, TAF9 / Fold change vs veh, TAF9 / RFU, SLC1A5 / Fold change vs veh, SLC1A5 / RFU, SLMO2 / Fold change vs veh, SLMO2 / RFU, ABCC4 / Fold change vs veh, ABCC4 / RFU, LOC101060439 /// RAP1B / Fold change vs veh, LOC101060439 /// RAP1B / RFU, RFX7 / Fold change vs veh, RFX7 / RFU, GTPBP10 / Fold change vs veh, GTPBP10 / RFU, CNEP1R1 / Fold change vs veh, CNEP1R1 / RFU, BIVM-ERCC5 /// ERCC5 / Fold change vs veh, BIVM-ERCC5 /// ERCC5 / RFU, ILF3 / Fold change vs veh, ILF3 / RFU 11762660_at / Fold change /veh 11762660_at / RFU VCAN (11757783_s_at) / Fold change /veh VCAN (11757783_s_at) / RFU DDX43 (11728927_at) / Fold change /veh DDX43 (11728927_at) / RFU KRT8 (11758188_x_at) / Fold change /veh KRT8 (11758188_x_at) / RFU NKD1 (11759106_at) / Fold change /veh NKD1 (11759106_at) / RFU SRD5A1 (11742802_a_at) / Fold change /veh SRD5A1 (11742802_a_at) / RFU TPSAB1 /// TPSB2 (11721975_s_at) / Fold change /veh TPSAB1 /// TPSB2 (11721975_s_at) / RFU GSTM3 (11746129_a_at) / Fold change /veh GSTM3 (11746129_a_at) / RFU IL23R (11737362_x_at) / Fold change /veh IL23R (11737362_x_at) / RFU TMEM51 (11727254_a_at) / Fold change /veh TMEM51 (11727254_a_at) / RFU PIWIL2 (11732686_x_at) / Fold change /veh PIWIL2 (11732686_x_at) / RFU ORM1 (11744905_x_at) / Fold change /veh ORM1 (11744905_x_at) / RFU CCDC152 (11743942_at) / Fold change /veh CCDC152 (11743942_at) / RFU ECM1 (11717891_a_at) / Fold change /veh ECM1 (11717891_a_at) / RFU IL23R (11748794_a_at) / Fold change /veh IL23R (11748794_a_at) / RFU TNFAIP8L3 (11732012_x_at) / Fold change /veh TNFAIP8L3 (11732012_x_at) / RFU MBOAT4 (11741988_at) / Fold change /veh MBOAT4 (11741988_at) / RFU 11764193_at / Fold change /veh 11764193_at / RFU TMEM53 (11763286_at) / Fold change /veh TMEM53 (11763286_at) / RFU MAGEB2 (11727129_at) / Fold change /veh MAGEB2 (11727129_at) / RFU TMEM200A (11744735_a_at) / Fold change /veh TMEM200A (11744735_a_at) / RFU CCDC152 (11751479_a_at) / Fold change /veh CCDC152 (11751479_a_at) / RFU FAM211A (11726209_a_at) / Fold change /veh FAM211A (11726209_a_at) / RFU RGS16 (11746705_a_at) / Fold change /veh RGS16 (11746705_a_at) / RFU VCAN (11755009_s_at) / Fold change /veh VCAN (11755009_s_at) / RFU RHOB (11743442_s_at) / Fold change /veh RHOB (11743442_s_at) / RFU RGS16 (11720943_a_at) / Fold change /veh RGS16 (11720943_a_at) / RFU RGS16 (11720944_at) / Fold change /veh RGS16 (11720944_at) / RFU, VPS4B / Fold change vs veh, VPS4B / RFU, CREB1 / Fold change vs veh, CREB1 / RFU, DNAJC13 / Fold change vs veh, DNAJC13 / RFU, GNAQ / Fold change vs veh, GNAQ / RFU, CDK5R1 / Fold change vs veh, CDK5R1 / RFU, ZRANB3 / Fold change vs veh, ZRANB3 / RFU, CUL4A / Fold change vs veh, CUL4A / RFU, CCNY / Fold change vs veh, CCNY / RFU, UFL1 / Fold change vs veh, UFL1 / RFU, COG3 / Fold change vs veh, COG3 / RFU, DIAPH2 / Fold change vs veh, DIAPH2 / RFU, SKA2 / Fold change vs veh, SKA2 / RFU, AFF3 / Fold change vs veh, AFF3 / RFU, LMF1 / Fold change vs veh, LMF1 / RFU, IPO11 / Fold change vs veh, IPO11 / RFU, DFFB / Fold change vs veh, DFFB / RFU, FOXP1 / Fold change vs veh, FOXP1 / RFU, CARD8 / Fold change vs veh, CARD8 / RFU, STRN3 / Fold change vs veh, STRN3 / RFU, ADK / Fold change vs veh, ADK / RFU, RASSF2 / Fold change vs veh, RASSF2 / RFU, WIPF1 / Fold change vs veh, WIPF1 / RFU, LARP1B / Fold change vs veh, LARP1B / RFU, RASA1 / Fold change vs veh, RASA1 / RFU, RB1 / Fold change vs veh, RB1 / RFU, PPFIA1 / Fold change vs veh, PPFIA1 / RFU, MAT2A / Fold change vs veh, MAT2A / RFU, CCT5 / Fold change vs veh, CCT5 / RFU, WDR92 / Fold change vs veh, WDR92 / RFU, CUX1 / Fold change vs veh, CUX1 / RFU, TTC7A / Fold change vs veh, TTC7A / RFU, TMEM135 / Fold change vs veh, TMEM135 / RFU, DEPTOR / Fold change vs veh, DEPTOR / RFU, CPM / Fold change vs veh, CPM / RFU, DNAJB6 / Fold change vs veh, DNAJB6 / RFU, CACNA2D3 / Fold change vs veh, CACNA2D3 / RFU, DTX4 / Fold change vs veh, DTX4 / RFU, TFCP2 / Fold change vs veh, TFCP2 / RFU, GMCL1 /// GMCL1P1 / Fold change vs veh, GMCL1 /// GMCL1P1 / RFU, AEBP2 / Fold change vs veh, AEBP2 / RFU, SNHG1 /// SNORD22 /// SNORD25 /// SNORD26 /// SNORD27 /// SNORD28 /// SNORD29 /// SNORD31 / Fold change vs veh, SNHG1 /// SNORD22 /// SNORD25 /// SNORD26 /// SNORD27 /// SNORD28 /// SNORD29 /// SNORD31 / Fold change (Aza/veh), C12orf56 (ProbeSet 11735607_a_at) / Fold change (ACY-1035/veh), C12orf56 (ProbeSet 11735607_a_at) / Fold change (Aza/veh), FGFR1OP (ProbeSet 11751329_s_at) / Fold change (ACY-1035/veh), FGFR1OP (ProbeSet 11751329_s_at) / Fold change (Aza/veh), VPS36 (ProbeSet 11739960_a_at) / Fold change (ACY-1035/veh), VPS36 (ProbeSet 11739960_a_at) / RFU SYPL1 (11715823_x_at) / Fold change /veh SYPL1 (11715823_x_at) / RFU IGFBP7 (11715501_s_at) / Fold change /veh IGFBP7 (11715501_s_at) / RFU REEP3 (11722064_at) / Fold change /veh REEP3 (11722064_at) / RFU IGLL1 (11728026_x_at) / Fold change /veh IGLL1 (11728026_x_at): dose or concentration left out as unconfirmed
Settings: MV-4-11 cells, 48 hours

In the case of `Nc1ccc(-c2cccs2)cc1NC(=O)c1ccc2c(c1)cc(C1CC1)n2CCN1CCOCC1` [ACY-1035], the “Fold change /veh NKD1 (11759106_at)” value is reported as 1.08.
